Data taken from patent publication US9956197B2 (priority 2013, dated 2018).
Marks after values point to notes of the source that are not given here.

Legend:
[1] = system: Lithium-pilocarpine induced status epilepticus; set-up: species or system Sprague-Dawley rats; conditions: in vivo
[2] = system: ACTH-refractory infantile spasm (behavioral spasms); assay: animal or person; format: in vivo, Sprague-Dawley rats; conditions: for inhibition in vivo at 60 mg/kg: read-out: ACTH-refractory IS (ip) Protection %, percentage of activity compared to the vehicle only; for ACTH-refractory IS (ip) Peak Time: rat, in vivo
[3] = system: Picrotoxin (PIC) induced clonic seizure; assay: animal or person; format: in vivo, ICR mice
[4] = system: PTZ (Pentylenetetrazol) induced clonic seizure; assay: animal or person; format: in vivo, ICR mice; conditions: mouse, in vivo
[5] = system: PTZ (Pentylenetetrazol) induced clonic seizure; set-up: species or system SD rats; conditions: rat, in vivo
6 Hz-induced seizure = assay: animal or person; format: in vivo, mice; conditions: ip
[6] = system: Lithium-pilocarpine induced status epilepticus; set-up: species or system Sprague-Dawley rats; conditions: in vivo; remark: listed apart in the source
[7] = Mus musculus, ip, read-out: PIC (ip) percentage of activity compared to the vehicle only

CC(OC(N)=O)C(O)c1ccccc1Cl (racemic) [Compound 3, 1-(2-chlorophenyl)-1-hydroxypropyl-2-carbamate]
Prevention (rat, ip) Peak Time [1]: 0.5 h
inhibition in vivo at 60 mg/kg ([2]; Rattus norvegicus, ip): 34%
ACTH-refractory IS (ip) Peak Time [2]: 3 h
responders at 10 mg/kg [3, 7]: 50%
PTZ test (ip) in Mice Peak Time [4]: 0.5 h
PTZ test (ip) in Rats Peak Time [5]: 18.9 (*0.5) h

C[C@H](OC(N)=O)[C@@H](O)c1ccccc1Cl [Compound 1, 1-(2-chlorophenyl)-(S)-1-hydroxypropyl-(S)-2-carbamate]
Prevention (rat, ip) Peak Time [1]: 2 h
ED50 (6 Hz-induced seizure; Mus musculus, read-out: 6 Hz ED50, 44 mA): 13.7 mg/kg
6 Hz Peak Time (6 Hz-induced seizure; mouse, in vivo): 0.25 h
ED50 ([2]; Rattus norvegicus, ip, read-out: ACTH-refractory IS (ip) ED50): 19.8 mg/kg
ACTH-refractory IS (ip) Peak Time [2]: 1 h
ED50 ([3]; Mus musculus, ip, read-out: PIC (ip) ED50): 18.2 mg/kg
PIC (ip) Peak Time ([3]; mice): 2 h
PTZ test (ip) in Mice Peak Time [4]: 2 h

C[C@@H](OC(N)=O)[C@H](O)c1ccccc1Cl [Compound 2, 1-(2-chlorophenyl)-(R)-1-hydroxypropyl-(R)-2-carbamate]
Prevention (rat, ip) Peak Time [1]: 0.5 h
inhibition in vivo at 60 mg/kg ([2]; Rattus norvegicus, ip): 65.9%
ACTH-refractory IS (ip) Peak Time [2]: 1 h
responders at 50 mg/kg [3, 7]: 16.7%
Intervention (rat, iv) Protection % [6]: ^a46 (50%)
PTZ test (ip) in Mice Peak Time [4]: 0.5 h
PTZ test (ip) in Rats Peak Time [5]: 51.9 (*1) h

C[C@H](OC(N)=O)[C@@H](O)c1ccccc1F [Compound 63, 1-(2-fluorophenyl)-(S)-1-hydroxypropyl-(S)-2-carbamate]
Prevention (rat, ip) Peak Time [1]: 0.25 h
responders at 60 mg/kg [3, 7]: 33.3%
Intervention (rat, iv) Protection % [6]: ^a46 (50%)

C[C@H](OC(N)=O)[C@@H](O)c1ccccc1I [Compound 65, 1-(2-iodophenyl)-(S)-1-hydroxypropyl-(S)-2-carbamate]
Prevention (rat, ip) Peak Time [1]: 2 h
inhibition in vivo at 60 mg/kg ([2]; Rattus norvegicus, ip): 92.1%
ACTH-refractory IS (ip) Peak Time [2]: 3 h
PIC (ip) percentage of activity compared to the vehicle only ([3]; mice, injection amount 50 mg/kg): 50^a (100%)
Intervention (rat, iv) Protection % [6]: ^a46 (100%)
PTZ test (ip) in Mice Protection % [4]: ^a20.4 (100%)

CC[C@H](OC(N)=O)[C@@H](O)c1ccccc1I [Compound 67, 1-(2-iodophenyl)-(S)-1-hydroxybutyl-(S)-2-carbamate]
Prevention (rat, ip) Peak Time [1]: 0.5 h
inhibition in vivo at 60 mg/kg ([2]; Rattus norvegicus, ip): 81.1%
ACTH-refractory IS (ip) Peak Time [2]: 2 h
responders at 50 mg/kg [3, 7]: 83.3%
Intervention (rat, iv) Protection % [6]: ^a46 (100%)
PTZ test (ip) in Mice Peak Time [4]: 0.5 h
PTZ test (ip) in Rats Protection % [5]: ^b30 (33.3%)
